Assay results: EP1388586A2, “Identification of broadly reactive DR restricted epitopes” (priority 1998, dated 1999)
Where two headings read alike, the source gives them in different places. Square brackets hold non-standard residues; d marks the D form. Ends that are not written are not given here. Peptide text beside a SMILES is read from it.

Key:
DRB1*0401 (DR4w4) = biological target: T1, DRB1*0401 (DR4w4) (Homo sapiens, UniProt P01903+P01911, A100K/A169T/F76Y/I96L/K127E/L162R/M171V/N62H/P40V/Q125Y/R42H/S133A/S149N/S66Y/V115G/V209L/W38E); experiment: Class II peptide-binding assay, DR4w4;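 also: unlabeled test peptides compete with a radiolabeled probe peptide for binding to affinity-purified HLA-DR, with DR amount titrated to capture a small fraction of label, IC50 approximating Kd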
T1 construct: used as sources of human HLA class II molecules; endogenous in cells; host or cells: PREISS (EBV-transformed homozygous B cell line)
Procedure: (§1) Class II peptide-binding assays. […] These assays were chosen as to be representative of the most common DR alleles.
(§2) Radiolabeled peptides were iodinated using the chloramine-T method. […] In appropriate stoichiometric conditions, the IC50 of an unlabeled test peptide to the purified DR is a reasonable approximation of the affinity of interaction (Kd). Peptides were tested in two to four completely independent experiments. […] Final detergent concentration in the incubation mixture was 0.05% Nonidet P-40. Assays were performed at pH 7.0 with the exception of DR3, which was performed at pH 4.5, and DRw53, which was performed at pH 5.0.
(§3) All subsequent inhibition and direct binding assays were the performed using these class II concentrations.

DRB1*0701 (DR7) = DRB1*0701 (DR7) (Homo sapiens, UniProt P01903+P01911, A100R/A102G/A103Q/D57E/D86V/E43K/F76Y/K127E/L162R/M171V/P40G/Q125H/Q99D/R33Q/R42Y/R54Q/S133A/S66F/T210M/V115G/Y107V/Y59L/Y89S); experiment: Class II peptide-binding assay, DR7;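 also: unlabeled peptides compete with an iodinated probe peptide for binding to affinity-purified HLA-DR at neutral pH, DR amount titered to bind a small tracer fraction, IC50 approximating Kd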
DRB1*1101 (DR5w11) = biological target: T2, DRB1*1101 (DR5w11) (Homo sapiens, UniProt P01903+P01911, A100R/A169T/A87E/I96F/K41T/L162R/M171V/P40S/Q125H/Q178H/Q39Y/Q99D/R42S/S66Y/T262R/V115G/W38E); experiment: Class II peptide-binding assay, DR5w11;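 also: competition by unlabeled test peptide against iodinated probe peptide binding to affinity-purified HLA-DR, class II amount titrated beforehand, half-maximal inhibitory concentration read as approximate Kd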
T2 construct: used as sources of human HLA class II molecules; endogenous in cells; host or cells: SWEIG (EBV-transformed homozygous B cell line)
T2 sequence (P01903 26-254, other chains not shown): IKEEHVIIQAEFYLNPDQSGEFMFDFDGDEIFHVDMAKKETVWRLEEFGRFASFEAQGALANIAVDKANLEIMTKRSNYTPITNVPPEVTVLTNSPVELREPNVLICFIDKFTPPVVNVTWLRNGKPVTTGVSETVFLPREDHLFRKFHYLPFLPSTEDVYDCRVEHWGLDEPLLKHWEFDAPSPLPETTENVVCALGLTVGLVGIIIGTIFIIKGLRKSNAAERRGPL
Procedure: as §1, §2, §3

DRB5*0101 (DR2w2a) = biological target: T3, DRB5*0101 (DR2w2a) (Homo sapiens, UniProt P01903+Q30154); experiment: Class II peptide-binding assay, DR2w2a (DR2w2B2);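 also: competitive binding assay: unlabeled peptide inhibiting binding of a radiolabeled probe peptide to purified DR molecules at pH 7.0, IC50 approximating Kd, lower means stronger binding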
T3 construct: used as sources of human HLA class II molecules; endogenous in cells; host or cells: GM3107 (EBV-transformed homozygous B cell line)

DRB10404 (DR4w14) = biological target: T4, DRB10404 (DR4w14) (Homo sapiens, UniProt P01903+P01911, A100R/A169T/F76Y/I96L/K127E/L162R/M171V/N62H/P40V/Q125Y/R42H/S133A/S149N/S66Y/V209L/W38E); experiment: Class II peptide-binding assay, DR4w14;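 also: unlabeled peptides compete with a radiolabeled probe for binding to affinity-purified HLA-DR, neutral pH, class II amount titrated to bind a small fraction of label, IC50 approximates Kd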
T4 construct: used as sources of human HLA class II molecules; endogenous in cells; host or cells: BIN40 (EBV-transformed homozygous B cell line)

DRB1*0101 (DR1) = biological target: T5, DRB1*0101 (DR1) (Homo sapiens, UniProt P01903+P01911, A100R/D57E/F55L/F60I/F76Y/I96L/L162R/M171V/P40L/Q125E/R42F/V115G/Y59C); experiment: Class II peptide-binding assay, DR1;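 also: competition assay: unlabeled test peptides inhibit binding of a radiolabeled probe peptide to purified DR, with half-maximal inhibition taken as an approximate dissociation constant Kd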
T5 construct: used as sources of human HLA class II molecules; endogenous in cells; host or cells: LG2 (EBV-transformed homozygous B cell line)

[1] = read-out: DR4w4 nM (In IC50 Format), purified HLA DR4w4
[2] = read-out: DR7 nM (In IC50 Format), purified HLA DR7
[3] = read-out: DR5w11 nM (In IC50 Format), purified HLA DR5w11
[4] = read-out: DR2w2B2 nM (In IC50 Format), purified HLA DR2w2β2
[5] = read-out: DR4w14 nM (In IC50 Format), purified HLA DR4w14
[6] = read-out: DR1 nM (In IC50 Format), purified HLA DR1
[7] = read-out: DR4w4 nM, Table VIII, In IC50 Format
[8] = read-out: DR7 nM, Table VIII, In IC50 Format
[9] = read-out: DR5w11 nM, Table VIII, In IC50 Format
[10] = read-out: DR2w2B2 nM, Table VIII, In IC50 Format
[11] = read-out: DR4w14 nM, Table VIII, In IC50 Format
[12] = read-out: DR1 nM, Table VIII, In IC50 Format
[13] = purified HLA DR4w4, read-out: DR4w4 nM (In IC50 Format)
[14] = purified HLA DR7, read-out: DR7 nM (In IC50 Format)
[15] = purified HLA DR5w11, read-out: DR5w11 nM (In IC50 Format)
[16] = purified HLA DR2w2β2, read-out: DR2w2B2 nM (In IC50 Format)
[17] = purified HLA DR4w14, read-out: DR4w14 nM (In IC50 Format)
[18] = purified HLA DR1, read-out: DR1 nM (In IC50 Format)

| Molecule | IC50 (DRB1*0401 (DR4w4); [1]) [nM] | IC50 (DRB1*0701 (DR7); [2]) [nM] | IC50 (DRB1*1101 (DR5w11); [3]) [nM] | IC50 (DRB5*0101 (DR2w2a); [4]) [nM] | IC50 (DRB10404 (DR4w14); [5]) [nM] | IC50 (DRB1*0101 (DR1); [6]) [nM] | further results |
| --- | --- | --- | --- | --- | --- | --- | --- |
| C[C@H](NC(=O)[C@H](C)NC(=O)[C@H](C)NC(=O)[C@H](Cc1ccc(O)cc1)NC(=O)[C@H](C)NC(=O)[C@@H](C)N)C(=O)N[C@@H](C)C(=O)N[C@H](C(=O)N[C@@H](C)C(=O)N[C@@H](CCCCN)C(=O)N[C@@H](C)C(=O)N[C@@H](C)C(=O)N[C@H](C)C(N)=O)[C@@H](C)O [Peptide 762.02] (H-[dA]AYAAAATAKAA[dA]-NH2) | 2 | 694 | 25.6 | 105 | 1430 | 1.7 |  |
| YERFQSQTTLKAKT-NH2 [Peptide 717.39] | 10.7 | 8330 | 47.6 | 800 | 16.7 | 18.5 |  |
| ARRLKAIYARRLK [Peptide 640.04] |  |  |  |  |  |  | IC50 (DRB1*0401 (DR4w4); read-out: In IC50 Format DR4w4, Table VIII): > 22500 nM; IC50 (DRB1*0701 (DR7); read-out: In IC50 Format DR7, Table VIII): 29.2 nM; IC50 (DRB1*1101 (DR5w11); read-out: In IC50 Format DR5w11, Table VIII): 667 nM; IC50 (DRB5*0101 (DR2w2a); read-out: In IC50 Format DR2w2β2, Table VIII): 8.7 nM; IC50 (DRB10404 (DR4w14); read-out: In IC50 Format DR4w14, Table VIII): 667 nM; IC50 (DRB1*0101 (DR1); read-out: In IC50 Format DR1, Table VIII): 3.6 nM |
| YARFASQTTLKAKT-NH2 [Peptide 717.56] | 5.2 | 6250 | 21.1 | 118 | 12.8 | 3.1 |  |
| C[C@H](NC(=O)[C@H](C)NC(=O)[C@H](Cc1ccccc1)NC(=O)[C@H](C)NC(=O)[C@@H](C)N)C(=O)N[C@@H](C)C(=O)N[C@@H](C)C(=O)N1CCC[C@H]1C(=O)N[C@@H](CCCCN)C(=O)N[C@@H](C)C(=O)N[C@@H](C)C(=O)N[C@@H](C)C(=O)N[C@H](C)C(N)=O [Peptide 828.05] (H-[dA]AFAAAAPKAAA[dA]-NH2) |  |  |  |  |  |  | IC50 (DRB1*0401 (DR4w4); [7]): 155 nM; IC50 (DRB1*0701 (DR7); [8]): 1320 nM; IC50 (DRB1*1101 (DR5w11); [9]): 105 nM; IC50 (DRB5*0101 (DR2w2a); [10]): 15.6 nM; IC50 (DRB10404 (DR4w14); [11]): 6250 nM; IC50 (DRB1*0101 (DR1); [12]): 1.9 nM |
| Ac-AFAAAATLKA-NH2 [Peptide 770.02] | 21.4 | 325 | 104 | 132 | 102 | 35.7 |  |
| MQYIKANSKFIGITE [Peptide 812.05] |  |  |  |  |  |  | IC50 (DRB1*0401 (DR4w4); [13]): 229 nM; IC50 (DRB1*0701 (DR7); [14]): 7.8 nM; IC50 (DRB1*1101 (DR5w11); [15]): 6.7 nM; IC50 (DRB5*0101 (DR2w2a); [16]): 2.4 nM; IC50 (DRB10404 (DR4w14); [17]): 84.5 nM; IC50 (DRB1*0101 (DR1); [18]): 64.1 nM |
| YARFQSQTALKAKT-NH2 [Peptide 717.52] | 4.6 | 1140 | 33.3 | 15.4 | 31.3 | 2.2 |  |
| YARFNSQTTLKAKT-NH2 [Peptide 717.44] | 4.2 | 5000 | 32.8 | 80 | 7.4 | 5 |  |
| AFAAAATLKA-NH2 [Peptide 770.01] | 23.7 | 694 | 250 | 43.1 | 357 | 78.1 |  |
| YARFQSQTTLKAKA-NH2 [Peptide 717.48] | 2.6 | 6250 | 5.9 | 40.8 | 5.3 | 1.8 |  |
| YIAFLKQATAKLAT [Peptide 723.01] | 16.7 | 15.6 | 30.5 | 69 | 746 | 4.9 |  |
| YARFQSQTTAKAKT-NH2 [Peptide 717.51] | 6.1 | 6250 | 38.8 | 66.7 | 13.2 | 3.3 |  |
| LMQYIKANSKFIGITE [Peptide 812.03] |  |  |  |  |  |  | IC50 (DRB1*0401 (DR4w4); [13]): 150 nM; IC50 (DRB1*0701 (DR7); [14]): 11.9 nM; IC50 (DRB1*1101 (DR5w11); [15]): 13.9 nM; IC50 (DRB5*0101 (DR2w2a); [16]): 4.9 nM; IC50 (DRB10404 (DR4w14); [17]): 65.8 nM; IC50 (DRB1*0101 (DR1); [18]): 13.2 nM |
| C[C@H](NC(=O)[C@H](N)Cc1ccc(O)cc1)C(=O)N[C@@H](C)C(=O)N[C@@H](Cc1ccccc1)C(=O)N[C@@H](C)C(=O)N[C@@H](C)C(=O)N[C@@H](C)C(=O)N[C@@H](C)C(=O)N1CCC[C@H]1C(=O)N[C@@H](CCCCN)C(=O)N[C@@H](C)C(=O)N[C@@H](C)C(=O)N[C@@H](C)C(=O)N[C@H](C)C(N)=O [Peptide 828.06] (H-[dY]AAFAAAAPKAAA[dA]-NH2) |  |  |  |  |  |  | IC50 (DRB1*0401 (DR4w4); [7]): 214 nM; IC50 (DRB1*0701 (DR7); [8]): 1920 nM; IC50 (DRB1*1101 (DR5w11); [9]): 235 nM; IC50 (DRB5*0101 (DR2w2a); [10]): 19 nM; IC50 (DRB10404 (DR4w14); [11]): 10000 nM; IC50 (DRB1*0101 (DR1); [12]): 2 nM |
| YAEFQSQTTLKAKT-NH2 [Peptide 717.41] | 32.1 | 25000 | 38.5 | 667 | 65.8 | 23.8 |  |
| KYLATASTMDHARHGFLP [Peptide 765.02] | 100 | 157 | 5000 | 10000 | 86.5 | 50000 |  |
| YARFQSNTTLKAKT-NH2 [Peptide 717.47] | 3.8 | 4170 | 18.2 | 444 | 14.7 | 41.7 |  |
| YARFQSQTTLKART-NH2 [Peptide 717.25] | 1.2 | 4170 | 13.3 | 64.5 | 10.6 | 4.5 |  |
| INSWVESQTNGIIRNVLQPS [Peptide 732.01] | 166 | 269 | 6670 | 1330 | 269 | 385 |  |
| YARFQSQTTLAAKT-NH2 [Peptide 717.50] | 3.1 | 4170 | 20.8 | 274 | 4.3 | 4.2 |  |
| CC[C@H](C)[C@H](NC(=O)[C@H](C)NC(=O)CNC(=O)[C@H](Cc1ccccc1)NC(=O)[C@H](CC(N)=O)NC(=O)[C@H](CC(N)=O)NC(=O)[C@H](N)CO)C(=O)N[C@@H](CC(C)C)C(=O)N[C@@H](CO)C(=O)N[C@@H](CO)C(=O)N[C@H](C(=O)N[C@@H](CC(N)=O)C(=O)N[C@H](C(=O)NCC(N)=O)C(C)C)[C@@H](C)O [Peptide 735.05] (H-[dS]NNFGAILSSTNVG-NH2) | 273 | 12500 | 20000 | 2860 | 376 | 48.5 |  |
| YARFQSQETLKAKT-NH2 [Peptide 717.17] | 5.2 | 1920 | 18.2 | 870 | 25 | 6 |  |
| YARFQSQSTLKAKT-NH2 [Peptide 717.16] | 1.8 | 3570 | 4 | 105 | 8.1 | 6 |  |
| YARFQSQTTLKAAT-NH2 [Peptide 717.49] | 6.6 | 4170 | 6.3 | 118 | 7.1 | 2.1 |  |
| YARFQSQTYLKAKT-NH2 [Peptide 717.33] | 187 | 641 | 1540 | 256 | 8330 | 1670 |  |
| EALVRQGLAKVAYVYKPNN [NASE 101-] |  |  |  |  |  |  | IC50 (DRB1*0401 (DR4w4); [7]): 978 nM; IC50 (DRB1*0701 (DR7); [8]): 454 nM; IC50 (DRB1*1101 (DR5w11); [9]): 100 nM; IC50 (DRB5*0101 (DR2w2a); [10]): 154 nM; IC50 (DRB10404 (DR4w14); [11]): 1140 nM; IC50 (DRB1*0101 (DR1); [12]): 2.2 nM |
